pIC50: −log10 of the molar value. ≈ marks a conversion by molar mass, not a printed value. Like-named read-outs stand apart in the source and are kept apart here.
Legend:
PBP2a = molecular target: T1, PBP2a (Staphylococcus aureus, UniProt P07944); assay: PBP2a enzymatic inhibition assay (fluorescein-labeled ampicillin, residual penicillin binding activity); type: biochemical, Staphylococcus aureus ATCC 43300
T1 construct: made in house
Experimental: PBP2a from Staphylococcus aureus ATCC 43300 and PBP5fm from Enterococcus faecium D63r were overproduced and purified as described previously, [18].
Each of the purified PBPs (2.5 µM) were first incubated with 1 mM potential inhibitor in 100 mM phosphate buffer, 0.01% Triton X-100[19], pH 7, for 4 h at 30°C. Then, 25 µM fluorescein-labeled ampicillin[20] was added to detect the residual penicillin binding activity (RA). The samples were further incubated for 30 min at 37°C in a total volume of 20 µL. Denaturation buffer was added (0.1 M Tris/HCl, pH 6.8, containing 25% glycerol, 2% SDS, 20% β-mercaptoethanol and 0.02% bromophenol blue) and the samples were heated to 100°C for 1 min. The samples were then loaded onto a 10% SDS-acrilamide gel (10×7 cm) and electrophoresis was performed for 45 min at 180 V (12 mA). Detection and quantification of the RAs were with Molecular Image FX equipment and Quantity One software (BioRad, Hercules, CA, USA). Three independent experiments were carried out for each inhibitor.

PBP2x 5204 = PBP2x 5204 (Streptococcus pneumoniae, UniProt P59676); assay: PBP2x 5204 enzymatic inhibition assay (S2d hydrolysis, DTNB); type: biochemical, Streptococcus pneumoniae strain 5204
Chain of PBP2x 5204 (P59676 49-750): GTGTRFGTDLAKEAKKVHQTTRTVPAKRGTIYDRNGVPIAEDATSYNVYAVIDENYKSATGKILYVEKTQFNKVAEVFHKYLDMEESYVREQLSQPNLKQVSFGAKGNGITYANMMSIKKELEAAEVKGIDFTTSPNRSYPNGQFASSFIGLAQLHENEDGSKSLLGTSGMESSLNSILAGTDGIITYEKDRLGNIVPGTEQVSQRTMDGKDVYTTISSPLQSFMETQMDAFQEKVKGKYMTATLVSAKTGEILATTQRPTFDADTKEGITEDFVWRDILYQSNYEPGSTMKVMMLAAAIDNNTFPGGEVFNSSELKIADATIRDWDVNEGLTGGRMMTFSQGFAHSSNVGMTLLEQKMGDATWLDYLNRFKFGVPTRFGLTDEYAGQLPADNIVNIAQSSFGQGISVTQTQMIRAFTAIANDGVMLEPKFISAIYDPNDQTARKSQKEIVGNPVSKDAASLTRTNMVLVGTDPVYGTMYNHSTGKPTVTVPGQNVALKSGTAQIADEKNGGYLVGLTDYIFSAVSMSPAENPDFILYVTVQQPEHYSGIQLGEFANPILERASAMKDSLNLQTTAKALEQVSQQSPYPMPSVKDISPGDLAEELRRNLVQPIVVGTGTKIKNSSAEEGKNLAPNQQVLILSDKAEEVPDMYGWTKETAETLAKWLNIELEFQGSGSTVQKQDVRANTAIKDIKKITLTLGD
Experimental: PBP2x-5204 from Streptococcus pneumonia and N-benzoyl-D-alanyl-thioglycolate S2d[21], [22] were prepared as previously described. All assays with PBP2x 5204 were carried out in 96-well microtiter plates (Brand, Wertheim, Germany). PBP2x 5204 (0.6 µM) was incubated in the presence of the potential inhibitors in 10 mM sodium phosphate buffer (pH 7.0) containing 70 mM D-alanine and 0.01 mg/mL BSA, for 4 h at 25°C. This preincubation was used to also detect slow binding inhibitors. After the preincubation, the RA of PBP2x 5204 was determined. The initial rate of hydrolysis of 1 mM S2d in the presence of 1 mM DTNB was determined by monitoring the increase in absorbance at 412 nm (DTNB: ε[Δ ε] = […]) using a microplate absorbance reader (Power Wave X, Biotek Instruments, Winooski, U.S.A.). The rate of spontaneous hydrolysis of S2d in the presence of the potential inhibitors was also determined in the absence of PBP2x 5204. All of the assays were carried out in triplicate. The determination of the RA of PBP2x 5204 in the absence of inhibitors was carried out six times on each plate. A test compound was considered as an inhibitor if the RA was <80%. In this case, to reveal false positives, the assays were also carried out under the same conditions in the presence of 0.01% Triton X-100. As described in the literature, promiscuous inhibitors (false positives) are slow binding, noncompetitive inhibitors. To avoid detailed kinetic investigations, it is possible to identify such compounds by carrying out the assays in the presence of Triton X-100[14], [19]. Promiscuous inhibitors show no inhibition in the presence of Triton X-100. The IC50 values in the presence of Triton X-100 were determined if the RAs were <50%. (RA: ∼50%, IC50∼c, c: concentration of compound in the assay; RA >50%, IC50 > c). The RA was measured over a range of concentrations, from which the IC50 values were determined by non-linear regression analysis, using Sigma Plot (Systat software) and fitting the data to the equation y = y0+(a×b)/(b+x)[23].

[1] = system: Bacillus subtilis ATCC 6633; assay: In-vitro antibacterial activity (MIC, broth microdilution); type: cell-based; details: ATCC6633
Experimental: (§1) Determination of the antibacterial activities was carried out on microtiter plates, in 200 µL (final volume) of Müeller-Hinton Broth (MHB), following EUCAST (European Committee on Antimicrobial Susceptibility testing)/CLSI (Clinical and Laboratory Standard Institute) recommended procedures, [25]. The compounds were solubilized in MHB, just before use. Inocula were prepared for each strain by resuspending isolated colonies from 18 h cultured plates. Equivalents of 0.5 Mac Farland turbidity standards (approximately 1×10^8 CFU mL^−1) were prepared in saline solution ([…]) and then diluted 200-fold in MBH.

[2] = system: Enterococcus faecalis ATCC 29212; assay: as above; type: cell-based; details: ATCC29212
Experimental: as §1

[3] = system: Enterococcus faecalis ATCC 7937; assay: as above; type: cell-based; details: ATCC7937
Experimental: as §1

[4] = system: Enterococcus faecium ATCC 19434; assay: as above; type: cell-based; details: ATCC19434
Experimental: as §1

[5] = system: Enterococcus hirae ATCC 8790; assay: as above; type: cell-based; details: ATCC8790
Experimental: as §1

[6] = system: Escherichia coli ATCC 8739; assay: as above; type: cell-based; details: ATCC8739
Experimental: as §1

[7] = system: Klebsiella pneumoniae ATCC 13883; assay: as above; type: cell-based; details: ATCC13883
Experimental: as §1

[8] = system: Listeria innocua ATCC 33090; assay: as above; type: cell-based; details: ATCC33090
Experimental: as §1

[9] = system: Listeria monocytogenes ATCC 14780; assay: as above; type: cell-based; details: ATCC14780
Experimental: as §1

[10] = system: Staphylococcus aureus ATCC 25923; assay: as above; type: cell-based; details: ATCC25923
Experimental: as §1

[11] = system: Staphylococcus aureus ATCC 43300 (MRSA); assay: as above; type: cell-based
Experimental: as §1

[12] = system: Staphylococcus aureus mp 1 (inducible MRSA); assay: as above; type: cell-based
Experimental: as §1

[13] = system: Staphylococcus epidermidis ATCC 12228; assay: as above; type: cell-based; details: ATCC12228
Experimental: as §1

[14] = system: Streptococcus pneumoniae ATCC 33400; assay: as above; type: cell-based; details: ATCC33400
Experimental: as §1

[15] = system: Streptococcus pneumoniae D39; assay: as above; type: cell-based
Experimental: as §1

[16] = system: all of the Staphylococcus aureus tested strains; assay: In-vitro antibacterial activity (MIC), Staphylococcus aureus strains; type: cell-based
Experimental: as §1

T1 sequence (P07944 whole entry): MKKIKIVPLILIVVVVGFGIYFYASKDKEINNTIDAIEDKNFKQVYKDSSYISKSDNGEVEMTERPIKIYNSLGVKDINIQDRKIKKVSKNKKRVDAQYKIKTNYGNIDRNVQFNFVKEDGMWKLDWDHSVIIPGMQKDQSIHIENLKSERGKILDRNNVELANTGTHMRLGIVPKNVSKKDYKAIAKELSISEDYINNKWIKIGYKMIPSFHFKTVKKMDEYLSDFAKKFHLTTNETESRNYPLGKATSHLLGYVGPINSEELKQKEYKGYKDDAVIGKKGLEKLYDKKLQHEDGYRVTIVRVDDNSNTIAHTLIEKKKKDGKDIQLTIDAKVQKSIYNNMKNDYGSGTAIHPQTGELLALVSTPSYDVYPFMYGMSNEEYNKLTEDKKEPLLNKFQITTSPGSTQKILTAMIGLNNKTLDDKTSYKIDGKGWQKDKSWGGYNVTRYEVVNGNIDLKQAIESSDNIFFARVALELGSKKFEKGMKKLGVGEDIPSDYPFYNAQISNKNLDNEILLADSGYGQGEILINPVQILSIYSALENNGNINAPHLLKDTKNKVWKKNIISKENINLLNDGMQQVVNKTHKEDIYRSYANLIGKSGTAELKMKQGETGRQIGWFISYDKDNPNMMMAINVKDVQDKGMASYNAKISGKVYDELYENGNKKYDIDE

## CCCCOc1ccc2cc(S(=O)(=O)Nc3ccccc3C(=O)O)ccc2c1 [compound 1, 2-(6-butoxynaphthalene-2-sulfonamido)benzoic acid]
PBP2a; 4 h, residual activity of the enzyme at 1 mM inhibitor, 0.01% Triton X-100, mean of three experiments, read-out: PBP2a RA [%]
  remaining activity at 1000 µM: 0%
PBP2a; in the presence of 0.01% Triton X-100
  pIC50: 4.01
PBP2x 5204; read-out: PBP2x5204 IC50, in the presence of 0.01% Triton X-100
  pIC50: 3.41
PBP2x 5204; residual activity of the enzyme at 500 µM inhibitor, 240 min
  PBP2x5204 RA [%]: 38%
[1]
  MIC: 2 µg/mL (≈ 5.01 µM)
[2]
  MIC: 32 µg/mL (≈ 80.1 µM)
[3]
  MIC: 16 µg/mL (≈ 40.1 µM)
[4]
  MIC: 64 µg/mL (≈ 160 µM)
[5]
  MIC: 16 µg/mL (≈ 40.1 µM)
[6]
  MIC: > 1020 µg/mL
[7]
  MIC: > 1020 µg/mL
[8]
  MIC: 16 µg/mL (≈ 40.1 µM)
[9]
  MIC: 16 µg/mL (≈ 40.1 µM)
[10]
  MIC: 32 µg/mL (≈ 80.1 µM)
[11]
  MIC: 32 µg/mL (≈ 80.1 µM)
[12]
  MIC: 32 µg/mL (≈ 80.1 µM)
[13]
  MIC: 32 µg/mL (≈ 80.1 µM)
[14]
  MIC: 1 µg/mL (≈ 2.5 µM)
[15]
  MIC: 1 µg/mL (≈ 2.5 µM)
[16]; MRSA, read-out: minimum inhibitory concentration (MIC) against MRSA
  MIC: 32 µg/mL
[16]; all S. aureus tested strains, converted from µg/ml, read-out: MIC value for all of the Staphylococcus aureus tested strains
  MIC: 80 µM
[16]; all S. aureus tested strains, read-out: MIC value for all of the Staphylococcus aureus tested strains
  MIC: 32 µg/mL
other
  melting point: 192 to 194 °C

From article PMC3090393, “New Noncovalent Inhibitors of Penicillin-Binding Proteins from Penicillin-Resistant Bacteria” (PLoS ONE, 2011)
